Test system: not given
Test: not given
Details: reported in the literature; cited from earlier work

Row | Compound | adverse side effects
1 | OC1(c2ccc(Cl)cc2)c2ccccc2C2=NCCN21 (stereo not drawn) [Mazindol] | dry mouth, constipation, stomach discomfort and nausea/vomiting
2 | CCCCCCCCCCC[C@@H](C[C@@H]1OC(=O)[C@H]1CCCCCC)OC(=O)[C@H](CC(C)C)NC=O [Xenical] | fatty stools, increased stool frequency, loose stools, diarrhea and abdominal pain

Biological target: T1, porcine pancreatic lipase (Sus scrofa, UniProt P00591)
T1 construct: purchased Sigma
T1 sequence (P00591 1-450): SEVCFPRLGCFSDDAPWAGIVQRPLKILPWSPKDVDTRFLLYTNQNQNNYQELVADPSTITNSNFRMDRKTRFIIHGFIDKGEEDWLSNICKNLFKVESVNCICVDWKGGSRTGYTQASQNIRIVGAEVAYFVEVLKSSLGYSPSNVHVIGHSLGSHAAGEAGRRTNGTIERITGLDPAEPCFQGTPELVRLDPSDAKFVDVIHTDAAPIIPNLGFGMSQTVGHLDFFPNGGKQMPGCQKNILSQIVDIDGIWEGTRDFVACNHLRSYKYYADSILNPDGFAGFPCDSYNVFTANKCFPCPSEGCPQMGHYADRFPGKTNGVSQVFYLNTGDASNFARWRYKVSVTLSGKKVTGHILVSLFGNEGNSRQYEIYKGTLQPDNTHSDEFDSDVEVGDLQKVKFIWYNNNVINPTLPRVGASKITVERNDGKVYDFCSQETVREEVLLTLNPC
Test: Lipase inhibitory activity assay (4-MUO substrate, fluorescence)
Type: biochemical
Details: method of Example 1
Experimental: A lipase activity assay was performed by using the oleate ester of fluorescent 4-methylumbelliferone (4-MUO) as a substrate to measure the fluorescence of 4-methylumbelliferone produced by reaction.
The buffer used for the assay was 13 mM Tris-HCl (pH 8.0) containing 150 mM NaCl, 1.36 mM CaCl2. The enzyme assay was performed using a 0.1 M solution of the substrate 4-MUO (Sigma) in DMSO diluted 1:1000 in said buffer and a solution of porcine pancreatic lipase (Sigma) prepared at 400 U/ml also in said buffer.
An enzymatic reaction was started by adding 25 μl of the lipase/buffer solution after 50 μl of the 4-MUO/buffer solution and 25 μl of distilled water (or an aqueous solution of each sample) were added and mixed in a 96-well microplate at 25° C. After the reaction was performed for 30 minutes, the reaction was stopped by adding 100 μl of a 0.1 M citrate buffer (pH 4.2) and the fluorescence of 4-methylumbelliferone produced by the reaction (excitation 355 nm, emission 460 nm) was measured using a fluorescence plate reader (Fluoroskan Asent CF from Labsystems).
The inhibitory activity of each test sample was determined as IC50(μM), i.e. the amount of the sample giving 50% inhibition of the activity of the control (distilled water).

Row | Compound | lipase inhibitory activity (in words)
3 | (−)-epigallocatechin 3-O-gallate [(−)-epigallocatechin 3-O-gallate (4), reference compound] | strongest activity among the major catechins

Same assay, conditions: porcine pancreatic lipase, 4-MUO substrate, 25° C., 30 minutes, pH 8.0

Row | Compound | IC50
4 | Oc1cc(O)c2c(c1)OC(c1ccc(O)c(O)c1)C(O)C2 (single isomer, unassigned; (+)) [(+)-catechin (5), (+)-catechin, reference compound] | > 690000 nM
5 | Oc1cc(O)c2c(c1)O[C@H](c1ccc(O)c(O)c1)[C@@H](O)[C@@H]2c1c(O)cc(O)c2c1O[C@H](c1cc(O)c(O)c(O)c1)[C@H](O)C2 [(+)-catechin (4α − 8) (−)-epigallocatechin] | 7910 nM
6 | O=C(O[C@@H]1Cc2c(O)cc(O)c([C@@H]3c4c(O)cc(O)cc4O[C@H](c4ccc(O)c(O)c4)[C@H]3O)c2O[C@@H]1c1cc(O)c(O)c(O)c1)c1cc(O)c(O)c(O)c1 [(+)-catechin (α + 8) (−)-epigallocatechin 3-O-gallate] | 174 nM
7 | Oc1cc(O)c2c(c1)O[C@H](c1cc(O)c(O)c(O)c1)[C@@H](O)[C@@H]2c1c(O)cc(O)c2c1O[C@H](c1ccc(O)c(O)c1)[C@H](O)C2 [(+)-gallocatechin (4α − 8) (−)-epicatechin] | 2860 nM
8 | Oc1cc(O)c2c(c1)O[C@H](c1cc(O)c(O)c(O)c1)[C@@H](O)C2 [(+)-gallocatechin (7), (+)-gallocatechin, reference compound] | > 163000 nM
9 | O=C(O[C@@H]1Cc2c(O)cc(O)cc2O[C@H]1c1ccc(O)c(O)c1)c1cc(O)c(O)c(O)c1 [(−)-catechin 3-O-gallate (6), (−)-catechin 3-O-gallate, reference compound] | 846 nM
10 | O=C(O[C@@H]1[C@@H](c2c(O)cc(O)c3c2O[C@H](c2cc(O)c(O)c(O)c2)[C@H](OC(=O)c2cc(O)c(O)c(O)c2)C3)c2c(O)cc(O)cc2O[C@@H]1c1ccc(O)c(O)c1)c1cc(O)c(O)c(O)c1 [(−)-epicatechin 3-O-gallate (4β − 8) (−)-epigallocatechin 3-O-gallate] | 846 nM
11 | Oc1cc(O)c2c(c1)O[C@H](c1ccc(O)c(O)c1)[C@H](O)C2 [(−)-epicatechin (1), (−)-epicatechin, reference compound] | > 21600 nM
12 | O=C(O[C@@H]1Cc2c(O)cc(O)c([C@H]3c4c(O)cc(O)cc4O[C@H](c4ccc(O)c(O)c4)[C@@H]3O)c2O[C@@H]1c1cc(O)c(O)c(O)c1)c1cc(O)c(O)c(O)c1 [(−)-epicatechin (4β − 8) (−)-epigallocatechin 3-O-gallate] | 147 nM
13 | O=C(O[C@@H]1[C@@H](c2c(O)cc(O)c3c2O[C@H](c2ccc(O)c(O)c2)[C@H](OC(=O)c2cc(O)c(O)c(O)c2)C3)c2c(O)cc(O)cc2O[C@@H]1c1cc(O)c(O)c(O)c1)c1cc(O)c(O)c(O)c1 [(−)-epigallocatechin 3-O-gallate (4β − 8) (−)-epicatechin 3-O-gallate] | 612 nM
14 | Oc1cc(O)c2c(c1)O[C@H](c1cc(O)c(O)c(O)c1)[C@H](O)C2 [(−)-epigallocatechin (3), (−)-epigallocatechin, reference compound] | > 20400 nM
15 | O=C(O[C@@H]1Cc2c(O)cc(O)c([C@H]3c4c(O)cc(O)cc4O[C@H](c4cc(O)c(O)c(O)c4)[C@@H]3O)c2O[C@@H]1c1ccc(O)c(O)c1)c1cc(O)c(O)c(O)c1 [(−)-epigallocatechin (4β − 8) (−)-epicatechin 3-O-gallate] | 913 nM
16 | O=C(O[C@@H]1Cc2c(O)cc(O)cc2O[C@H]1c1cc(O)c(O)c(O)c1)c1cc(O)c(O)c(O)c1 [(−)-gallocatechin 3-O-gallate (8), (−)-gallocatechin 3-O-gallate, reference compound] | 349 nM
17 | Oc1cc(O)c2c(c1)O[C@H](c1ccc(O)c(O)c1)[C@H](O)[C@H]2c1c(O)cc(O)c2c1O[C@H](c1ccc(O)c(O)c1)[C@H](O)C2 [procyanidin B-2 (9), procyanidin B-2] | 7960 nM
18 | Oc1cc(O)c2c(c1)O[C@H](c1ccc(O)c(O)c1)[C@@H](O)[C@@H]2c1c(O)cc(O)c2c1O[C@H](c1ccc(O)c(O)c1)[C@@H](O)C2 [procyanidin B-3 (10), procyanidin B-3] | 2940 nM
19 | O=C(O[C@@H]1Cc2c(O)cc3c(c2O[C@@H]1c1cc(O)c(O)c(O)c1)[C@H]1c2c(O)cc(O)cc2O[C@@](c2cc(O)c(O)c(O)c2)(O3)[C@@H]1O)c1cc(O)c(O)c(O)c1 [prodelphinidin A-2 3′-O-gallate (11), prodelphinidin A-2 3′-O-gallate] | 171 nM
20 | O=C(O[C@@H]1[C@@H](c2c(O)cc(O)c3c2O[C@H](c2cc(O)c(O)c(O)c2)[C@H](OC(=O)c2cc(O)c(O)c(O)c2)C3)c2c(O)cc(O)cc2O[C@@H]1c1cc(O)c(O)c(O)c1)c1cc(O)c(O)c(O)c1 [prodelphinidin B-2 3,3′-di-O-gallate] | 107 nM
21 | O=C(OC1Cc2c(O)cc(O)c(C3c4c(O)cc(O)cc4OC(c4cc(O)c(O)c(O)c4)C3O)c2OC1c1cc(O)c(O)c(O)c1)c1cc(O)c(O)c(O)c1 (stereo not drawn) [prodelphinidin B-2 3′-O-gallate (13), prodelphinidin B-2 3′-O-gallate] | 1970 nM
22 | Oc1cc(O)c2c(c1)O[C@H](c1cc(O)c(O)c(O)c1)[C@H](O)[C@H]2c1c(O)cc(O)c2c1O[C@H](c1cc(O)c(O)c(O)c1)[C@H](O)C2 [prodelphinidin B-2 (12), prodelphinidin B-2] | 2950 nM
23 | O=C(O[C@@H]1Cc2c(O)cc(O)c([C@@H]3c4c(O)cc(O)cc4O[C@H](c4cc(O)c(O)c(O)c4)[C@H]3O)c2O[C@@H]1c1cc(O)c(O)c(O)c1)c1cc(O)c(O)c(O)c1 [prodelphinidin B-4 3′-O-gallate (16), prodelphinidin B-4 3′-O-gallate] | 223 nM
24 | Oc1cc(O)c2c(c1)O[C@H](c1cc(O)c(O)c(O)c1)[C@@H](O)[C@@H]2c1c(O)cc(O)c2c1O[C@H](c1cc(O)c(O)c(O)c1)[C@H](O)C2 [prodelphinidin B-4 (15), prodelphinidin B-4] | 6230 nM
25 | (−)-epicatechin 3-O-gallate [(−)-epicatechin 3-O-gallate (2), reference compound] | 271 nM
26 | (−)-epigallocatechin 3-O-gallate [(−)-epigallocatechin 3-O-gallate (4), reference compound] | 284 nM
27 | prodelphinidin B-5 3,3′-di-O-gallate | 558 nM

— patent US20080306284A1, “Lipase Inhibitors” (priority 2004, published 2008)
